{
  "source": "patent US20140366440A1",
  "about": "“METHOD FOR PRODUCING CLONE SEEDLINGS” (OKAYAMA PREFECTURE, priority 2009, published 2014)",
  "type_in_all_cases": "in vivo, Eucalyptus globulus",
  "key": {"E. globulus (Clone D)": {"test_system": "E. globulus (Clone D)", "assay": "Rooting of shoots with wounded base in rooting medium containing oxidized glutathione", "conditions": "Example 17: 50 mg/L in medium", "procedure": "(§1) A base of the shoot thus obtained was planted to a foaming phenolic resin porous supporter (Manufactured by Smithers-Oasis Company; Product name: Oasis). […] The base of the shoot was cultured for two months in carbon dioxide gas of 1000 ppm at a temperature of 25° C. under irradiation of red light having photosynthesis photon flux density of 51.3 μmol/m^2/S and having a wavelength component of 650 nm to 670 nm to a wavelength component of 450 nm to 470 nm at a ratio of 8.2:1.8. The culturing was carried out with a culture container, which was a cube container (maximum size of about 10 cm to 11.5 cm in length×10 cm to 11.5 cm in width×10.0 cm in height) having a shape whose bulge was slightly protruded. […] Carbon dioxide gas outside the culture container was allowed to enter the culture container through this carbon dioxide gas permeable membrane covering the opening. Accordingly, carbon dioxide gas concentration inside the culture container was about 1000 ppm due to the permeation of the carbon dioxide gas through the film covering the opening of the culture container. The culture container was irradiated with red light by use of a light irradiation device (Product name: CCFL unit, maker's name: Nippon Medical& Chemical Instruments CO., LTD.). Further, humidity in the culture container is adjusted by sealing the culture container with Parafilm.\n(§2) Nine shoots were planted per culture container. A rooting rate was calculated from the number of test pieces of the shoot and the number of shoots (the number of rooted shoots) which had been rooted after the foliage was cultured for two months."}, "E. globulus (Clone E)": {"test_system": "E. globulus (Clone E)", "assay": "Rooting of shoots with wounded base in rooting medium containing oxidized glutathione", "conditions": "Example 18: 50 mg/L in medium", "procedure": "as §1, §2"}, "[1]": {"test_system": "E. globulus (wild-type F)", "assay": "Rooting of shoots with wounded base in rooting medium containing oxidized glutathione", "conditions": "Example 19: 50 mg/L in medium", "procedure": "as §1, §2"}, "E. globulus (Clone C)": {"test_system": "E. globulus (Clone C)", "assay": "Rooting of shoots with wounded base in rooting medium containing oxidized glutathione", "conditions": "Example 16: 50 mg/L in medium", "procedure": "as §1, §2"}, "[2]": {"test_system": "E. globulus wild-type (tissue culture)", "assay": "Rooting of tissue-culture shoots planted to supporter infiltrated with rooting medium containing oxidized glutathione", "conditions": "for Rooting rate (%): 27 test pieces; for Number of rooted shoots: of 27 test pieces", "from_the_text": "A foliage (shoot) grown to have a length of 2 cm to 5 cm was cut from a multiple shoot induced from a wild-type Eucalyptus globulus (hereinafter, abbreviated simply as an “E. globulus”). Inducing the multiple shoot followed a method described in Japanese Patent Application Publication, Tokukaihei, No. 8-228621 A. Specifically, a tissue (terminal bud and axillary bud) was collected from E. globulus (wild type), and the tissue thus collected was subjected to surface disinfection by immersing the tissue for twenty minutes in an sodium hypochlorite aqueous solution containing an amount of available chlorine of 1%. Then, the tissue which had been subjected to the surface disinfection was washed by sterilized water and was planted to a solid medium (MS medium containing sucrose of […], BA of 0.2 mg/L, and gellan gum of […]), and its bud was opened. Within three and four weeks after the culturing of the foliage was started, the culturing of the foliage was subcultured in a medium having a composition identical with that described above. […] Note that the foliages from the multiple shoot was grown in a medium having the composition identical with that used for forming the multiple shoot under the condition identical with that used for forming the multiple shoot.\nas §1, §2"}, "[3]": {"conditions": "Example 2: 50 mg/L in medium, two months"}, "[4]": {"conditions": "Example 3: 75 mg/L in medium, two months"}},
  "data": [
    {"substance": "oxidized glutathione", "values": [
      {"measurement": "Rooting rate (%)", "setting": "E. globulus (Clone D); 18 test pieces", "result": 88.9, "unit": "%"},
      {"measurement": "Number of rooted shoots", "setting": "E. globulus (Clone D); of 18 test pieces", "result": 16},
      {"measurement": "Rooting rate (%)", "setting": "E. globulus (Clone E); 27 test pieces", "result": 88.9, "unit": "%"},
      {"measurement": "Number of rooted shoots", "setting": "E. globulus (Clone E); of 27 test pieces", "result": 24},
      {"measurement": "Rooting rate (%)", "setting": "[1]; 18 test pieces", "result": 100.0, "unit": "%"},
      {"measurement": "Number of rooted shoots", "setting": "[1]; of 18 test pieces", "result": 18},
      {"measurement": "Rooting rate (%)", "setting": "E. globulus (Clone C); 27 test pieces", "result": 96.3, "unit": "%"},
      {"measurement": "Number of rooted shoots", "setting": "E. globulus (Clone C); of 27 test pieces", "result": 26},
      {"measurement": "Rooting rate (%)", "setting": "[2]; Example 1: 25 mg/L in medium, adding glutathione to rooting medium (with STS, ascorbic acid, IBA), cultured two months", "result": 74.1, "unit": "%"},
      {"measurement": "Number of rooted shoots", "setting": "[2]; Example 1: 25 mg/L in medium, two months", "result": 20},
      {"measurement": "Rooting rate (%)", "setting": "[2]; [3]", "result": 85.2, "unit": "%"},
      {"measurement": "Number of rooted shoots", "setting": "[2]; [3]", "result": 23},
      {"measurement": "Rooting rate (%)", "setting": "[2]; [4]", "result": 51.9, "unit": "%"},
      {"measurement": "Number of rooted shoots", "setting": "[2]; [4]", "result": 14}
    ]}
  ]
}
